Results on 22 molecules are retold here after patent publication US11111251B2, “Positive allosteric modulators of the muscarinic acetylcholine receptor M1” (Vanderbilt University, priority 2016, dated 2021).

One may read the EC50 as the concentration at which the effect is half-maximal. One may read the Emax as the size of the effect at its maximum, as opposed to the concentration needed.

Like-named read-outs stand apart in the source and are kept apart here.

The target of this assay is T1, human mAChR M1 (Homo sapiens, UniProt P11229).
T1 sequence (P11229 1-460): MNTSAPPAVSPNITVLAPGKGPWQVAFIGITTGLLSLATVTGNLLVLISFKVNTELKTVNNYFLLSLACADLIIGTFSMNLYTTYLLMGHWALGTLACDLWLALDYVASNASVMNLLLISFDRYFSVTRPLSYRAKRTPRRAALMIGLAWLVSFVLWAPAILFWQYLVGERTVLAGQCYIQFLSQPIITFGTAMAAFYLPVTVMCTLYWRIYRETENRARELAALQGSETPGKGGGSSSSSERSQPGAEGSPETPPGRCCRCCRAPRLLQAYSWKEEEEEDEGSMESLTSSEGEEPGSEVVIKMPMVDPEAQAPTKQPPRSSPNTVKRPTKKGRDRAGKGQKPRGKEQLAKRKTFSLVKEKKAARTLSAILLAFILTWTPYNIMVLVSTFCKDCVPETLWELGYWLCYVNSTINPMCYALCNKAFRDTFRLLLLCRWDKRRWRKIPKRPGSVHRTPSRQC
In words: mAChR M1 cell-based functional assay: calcium mobilization, positive allosteric modulator mode (increase in EC20 acetylcholine response). The following applies: for Emax: read-out: Human M1 Emax (%). The method in brief:
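PAM potency reflects the concentration-dependent increase in calcium response to an EC20 acetylcholine challenge, given 144 s into a 300 s read after compound addition at 4 s (EC80 follows at 230 s). Cells were hM1-expressing CHO-K1, loaded 50 min with Fluo-4 AM. Curves used 11 points at 1:3 dilutions and four-parameter logistic fitting.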
On the technique in general: Calcium flux is commonly read through the fluorescence of an indicator in the cells.

The mark [1] stands for this setting: Table 2, human M1, read-out: Human M1 EC50.

Regarding `Cn1cc2c(-c3ccc(Oc4cc(C(=O)N[C@H]5CCOC[C@@H]5O)nc5ccsc45)c(F)c3)cccc2n1` [Compound 13, 7-[2-fluoro-4-(2-methylindazol-4-yl)phenoxy]-N-[(3R,4S)-3-hydroxytetrahydropyran-4-yl]thieno[3,2-b]pyridine-5-carboxamide], the half-maximal effective concentration (EC50) (Table 1, mAChR M1 cell-based functional assay, PAM mode, species not given, read-out: EC50) was found to be 4120 nM.

With `Cn1cc(-c2ccc(Cc3cc(C(=O)N[C@@H]4COCC[C@H]4O)nc4ccsc34)cc2)nn1` [Compound 154, N-[(3R,4R)-4-hydroxytetrahydropyran-3-yl]-7-[[4-(1-methyltriazol-4-yl)phenyl]methyl]thieno[3,2-b]pyridine-5-carboxamide], under setting [1], the EC50 was determined as 6.2 nM. Also, the Emax (Table 2, human M1) worked out at 83.9%. For the molecule `Cn1cc(-c2ccc(Cc3cc(C(=O)NC4CC5(COC5)C4)nc4ccn(C)c34)cn2)cn1` [Compound 471, 1-methyl-7-[[6-(1-methylpyrazol-4-yl)-3-pyridyl]methyl]-N-(2-oxaspiro[3.3]heptan-6-yl)pyrrolo[3,2-b]pyridine-5-carboxamide], the concentration giving a half-maximal response (EC50) under setting [1] was 390 nM. Further, the Emax (Table 2, human M1) came to 85.4%. For `Cn1cc(-c2cc(F)c(Cc3cc(C(=O)N[C@H]4COCC[C@@H]4O)nc4ccsc34)c(F)c2)cn1` [Compound 60, 7-[[2,6-difluoro-4-(1-methylpyrazol-4-yl)phenyl]methyl]-N-[(3S,4S)-4-hydroxytetrahydropyran-3-yl]thieno[3,2-b]pyridine-5-carboxamide] the same measures were 5600 nM and 71.6%. Consider `CO[C@@H]1CCCC[C@H]1NC(=O)c1cc(Cc2ccc(C)nc2)c2scc(C)c2n1` [Compound 106, N-[(1R,2R)-2-methoxycyclohexyl]-3-methyl-7-[(6-methyl-3-pyridyl)methyl]thieno[3,2-b]pyridine-5-carboxamide], for which the concentration for a half-maximal effect (EC50) under setting [1] is 2200 nM. Also, the maximal effect (Emax) (Table 2, human M1) was 82.1%. On to “7-[[6-(1-methylpyrazol-4-yl)-3-pyridyl]methyl]-N-tetrahydropyran-4-yl-thieno[3,2-b]pyridine-5-carboxamide [Compound 301]”, for which the “Human M1 Emax (%)” value (Table 2, human M1) is listed as 71.87%. For the same molecule, under setting [1], the EC50 amounted to 42.3 nM. For the molecule `Cn1ccc(-c2ccc(Cc3cc(C(=O)N[C@H]4CCCC[C@@H]4O)nc4ccn(C)c34)cn2)n1` [Compound 512, N-[(1S,2S)-2-hydroxycyclohexyl]-1-methyl-7-[[6-(1-methylpyrazol-3-yl)-3-pyridyl]methyl]pyrrolo[3,2-b]pyridine-5-carboxamide; and], the EC50 under setting [1] is 91.3 nM. Moreover, the Emax (Table 2, human M1) is 70.8%. Regarding `Cn1ccc2nc(C(=O)NC3CCOCC3)cc(Cc3ccc(-c4cscn4)cc3)c21` [Compound 451, 1-methyl-N-tetrahydropyran-4-yl-7-[(4-thiazol-4-ylphenyl)methyl]pyrrolo[3,2-b]pyridine-5-carboxamide], under setting [1], the concentration giving a half-maximal response (EC50) was determined as 184 nM. For the same molecule, the Emax (Table 2, human M1) worked out at 71.7%. Take `Cc1ncc(Cc2cc(C(=O)NC3CCCNC3=O)nc3ccsc23)s1` (stereo not shown) [Compound 143, 7-[(2-methylthiazol-5-yl)methyl]-N-(2-oxo-3-piperidyl)thieno[3,2-b]pyridine-5-carboxamide]: the EC50 under setting [1] is > 10000 nM. The Emax (Table 2, human M1) came to 50.5%. Turning to `O=C(NC1CN(CC(F)(F)F)C1)c1cc(Cc2ccc(-n3cccn3)cc2)c2sccc2n1` [Compound 432], the EC50 under setting [1] amounted to 3420 nM. In addition, under “Table 2, human M1”, the Emax is 47.5%. For `O=C(NC1CCOCC1)c1cc(Cc2ccc(-c3cscn3)cc2)c2sccc2n1` [Compound 232, N-tetrahydropyran-4-yl-7-[(4-thiazol-4-ylphenyl)methyl]thieno[3,2-b]pyridine-5-carboxamide] the same measures were 134 nM and 75.7%. For `Cn1ccc2nc(C(=O)NC3COC3)cc(Cc3ccc(-c4cscn4)cc3)c21` [Compound 467, 1-methyl-N-(oxetan-3-yl)-7-[(4-thiazol-4-ylphenyl)methyl]pyrrolo[3,2-b]pyridine-5-carboxamide] the same measures were 2970 nM and 61.2%. `Cc1nc(-c2ccc(Cc3cc(C(=O)NC4CCCNC4=O)nc4ccsc34)cc2)co1` (stereo not shown) [Compound 171, 7-[[4-(2-methyloxazol-4-yl)phenyl]methyl]-N-(2-oxo-3-piperidyl)thieno[3,2-b]pyridine-5-carboxamide]: under setting [1], the concentration giving a half-maximal response (EC50) came to 373 nM. For the same molecule, the maximal effect (Emax) (Table 2, human M1) was found to be 93%.

Take `Cc1cc2nc(C(=O)NC3CCOCC3)cc(Cc3ccc(-n4cccn4)cc3)c2s1` [Compound 239, 2-methyl-7-[(4-pyrazol-1-ylphenyl)methyl]-N-tetrahydropyran-4-yl-thieno[3,2-b]pyridine-5-carboxamide]: the 50% effective concentration (EC50) under setting [1] was determined as 3080 nM. For the same molecule, for the setting “Table 2, human M1”, the maximal effect (Emax) came to 81.5%. Take `Cn1cc(-c2ccc(Cc3cc(C(=O)N[C@H]4COCC[C@@H]4O)nc4ccsc34)cn2)cn1` [Compound 62, N-[(3S,4S)-4-hydroxytetrahydropyran-3-yl]-7-[[6-(1-methylpyrazol-4-yl)-3-pyridyl]methyl]thieno[3,2-b]pyridine-5-carboxamide]: the concentration giving a half-maximal response (EC50) under setting [1] was > 10000 nM. Besides, the Emax (Table 2, human M1) worked out at 41.2%. Regarding `O=C(NC1CCOCC1)c1cc(Cc2ccc(-c3cncs3)cc2)c2sccc2n1` [Compound 394, N-tetrahydropyran-4-yl-7-[(4-thiazol-5-ylphenyl)methyl]thieno[3,2-b]pyridine-5-carboxamide], the EC50 under setting [1] is 233 nM. Also, under “Table 2, human M1”, the Emax turned out to be 65.5%. For `Cn1ccc(-c2ccc(Cc3cc(C(=O)N[C@H]4CCC[C@@H]4O)nc4ccsc34)cn2)n1` [Compound 352, N-[(1S,2S)-2-hydroxycyclopentyl]-7-[[6-(1-methylpyrazol-3-yl)-3-pyridyl]methyl]thieno[3,2-b]pyridine-5-carboxamide] the same measures were 32.7 nM and 90.7%. For `O=C(NCC1CCOC1)c1cc(Cc2ccc(-c3nccs3)cc2)c2sccc2n1` (stereo not shown) [Compound 374, N-(tetrahydrofuran-3-ylmethyl)-7-[(4-thiazol-2-ylphenyl)methyl]thieno[3,2-b]pyridine-5-carboxamide] the same measures were 556 nM and 73.1%.

Turning to `Cn1cc(-c2ccc(Cc3cc(C(=O)N[C@H]4CCC[C@@H]4O)nc4ccsc34)c(F)c2)cn1` [Compound 56, 7-[[2-fluoro-4-(1-methylpyrazol-4-yl)phenyl]methyl]-N-[(1S,2S)-2-hydroxycyclopentyl]thieno[3,2-b]pyridine-5-carboxamide], the half-maximal effective concentration (EC50) under setting [1] worked out at 3260 nM. Moreover, the Emax (Table 2, human M1) was 51%. For `Cc1ccc([C@@H](F)c2cc(C(=O)N[C@H]3CCCC[C@@H]3O)nc3ccsc23)cn1` [Compound 234] the same measures were 1370 nM and 64.6%.

`CC(NC(=O)c1cc(Cc2ccc(-n3cccn3)cc2)c2sccc2n1)C1CCCO1` (stereo not shown) [Compound 446, 7-[(4-pyrazol-1-ylphenyl)methyl]-N-(1-tetrahydrofuran-2-ylethyl)thieno[3,2-b]pyridine-5-carboxamide]: the EC50 under setting [1] came to 922 nM. Also, for the setting “Table 2, human M1”, the Emax came to 72.8%. With `Cc1nc(-c2ccc(Cc3cc(C(=O)N[C@@H]4CCCC[C@H]4O)nc4ccsc34)cc2)co1` [Compound 168, N-[(1R,2R)-2-hydroxycyclohexyl]-7-[[4-(2-methyloxazol-4-yl)phenyl]methyl]thieno[3,2-b]pyridine-5-carboxamide], under setting [1], the EC50 was 84.2 nM. Besides, for the setting “Table 2, human M1”, the Emax was 82.6%.
